pIC50: −log10 of the molar value. Where two headings read alike, the source gives them in different places.
System: Lox-IMVI melanoma cell line
Test: Lox-IMVI anti-proliferative assay (growth inhibition, Cell Titer-Glo)
Format: cell-based, human
Conditions: Homo sapiens
Outline: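 IC50 values reflect the concentration giving 50% of DMSO-control luminescence after 72 h of treatment, fitted with a four-parameter logistic model. Cells were cultured in RPMI + 10% FBS with compound from 0.5 nM to 10 μM.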

[1] = Lox-IMVI anti-proliferative assay, IC50 activity level, read-out: Activity
[2] = IC50 activity level in the cell-based Lox-IMVI anti-proliferative assay, read-out: Activity
[3] = Lox-IMVI melanoma cell line, anti-proliferative assay, read-out: Activity (IC50 activity level)

Row | pIC50 [1] | pIC50 [2] | SMILES | also measured
1 | < 6.00 | – | N#Cc1cc(F)c(Nc2nc3cnc(N[C@@H]4CCC[C@H](O)C4)nc3n2[C@H]2CC[C@@H](C(N)=O)CC2)c(F)c1 [Example 457, (1S,4s)-4-(8-(4-cyano-2,6-difluorophenylamino)-2-((1R,3S)-3-hydroxycyclohexylamino)-9H-purin-9-yl)cyclohexanecarboxamide] | –
2 | – | < 6.00 | C[C@H](CO)Nc1ncc2nc(Nc3c(F)cc(F)cc3Cl)n([C@H]3CC[C@@H](C(N)=O)CC3)c2n1 [Example 134, (1S,4s)-4-(8-(2-chloro-4,6-difluorophenylamino)-2-((R)-1-hydroxypropan-2-ylamino)-9H-purin-9-yl)cyclohexanecarboxamide] | –
3 | – | < 6.00 | NC(=O)[C@H]1CC[C@@H](n2c(Nc3ccc(Cl)cc3Cl)nc3cnc(NC4CCCC4)nc32)CC1 [Example 94, (1s,4s)-4-(2-(cyclopentylamino)-8-(2,4-dichlorophenylamino)-9H-purin-9-yl)cyclohexanecarboxamide] | –
4 | > 6.60 | – | C[C@]1(C(N)=O)CC[C@@H](n2c(Nc3c(F)cc(F)cc3F)nc3cnc(NC4CCCC4)nc32)CC1 [Example 556, (1s,4s)-4-(2-(cyclopentylamino)-8-(2,4,6-trifluorophenylamino)-9H-purin-9-yl)-1-methylcyclohexanecarboxamide] | –
5 | – | – | C[C@]1(C(N)=O)CC[C@@H](n2c(Nc3c(Cl)cc(C#N)cc3Cl)nc3cnc(N[C@H]4CCC[C@H](O)C4)nc32)CC1 [Example 616, (1R,4s)-4-(8-(2,6-dichloro-4-cyanophenylamino)-2-((1S,3S)-3-hydroxycyclohexylamino)-9H-purin-9-yl)-1-methylcyclohexanecarboxamide] | pIC50 [3]: > 6.60
6 | < 6.00 | – | CC[C@@H](CO)Nc1ncc2nc(Nc3c(F)cc(C#N)cc3Cl)n([C@H]3CC[C@@H](C(N)=O)CC3)c2n1 [Example 433, (1R,4s)-4-(8-(2-chloro-4-cyano-6-fluorophenylamino)-2-((S)-1-hydroxybutan-2-ylamino)-9H-purin-9-yl)cyclohexanecarboxamide] | –
7 | – | 6.00 to 6.30 | NC(=O)[C@H]1CC[C@@H](n2c(Nc3c(F)ccc(F)c3F)nc3cnc(NC4CCC(F)(F)CC4)nc32)CC1 [Example 239, (1s,4s)-4-(2-(4,4-difluorocyclohexylamino)-8-(2,3,6-trifluorophenylamino)-9H-purin-9-yl)cyclohexanecarboxamide] | –
8 | < 6.00 | – | C[C@]1(C(N)=O)CC[C@H](n2c(Nc3c(Cl)cc(C(F)(F)F)cc3Cl)nc3cnc(NC4CCCC4)nc32)CC1 [Example 488, (1r,4r)-4-(2-(cyclopentylamino)-8-(2,6-dichloro-4-(trifluoromethyl)phenylamino)-9H-purin-9-yl)-1-methylcyclohexanecarboxamide] | –
9 | – | – | CC(=O)N1CCC[C@@H](Nc2ncc3nc(Nc4c(Cl)cccc4Cl)n([C@H]4CC[C@@H](C(N)=O)CC4)c3n2)C1 [Example 800, (1S,4s)-4-(2-((R)-1-acetylpiperidin-3-ylamino)-8-(2,6-dichlorophenylamino)-9H-purin-9-yl)cyclohexanecarboxamide] | pIC50 (Lox-IMVI anti-proliferative assay, cell-based, read-out: Activity (IC50 activity level)): < 6.00
10 | – | – | N#Cc1cc(Cl)c(Nc2nc3cnc(N[C@@H]4CCCN(c5ccccc5)C4)nc3n2[C@H]2CC[C@@H](C(N)=O)CC2)c(Cl)c1 [Example 744, (1S,4s)-4-(8-(2,6-dichloro-4-cyanophenylamino)-2-((R)-1-phenylpiperidin-3-ylamino)-9H-purin-9-yl)cyclohexanecarboxamide] | pIC50 [3]: < 6.00
11 | 6.00 to 6.30 | – | N#Cc1cc(F)c(Nc2nc3cnc(NC4CC(F)(F)C4)nc3n2[C@H]2CC[C@@H](C(N)=O)CC2)c(Cl)c1 [Example 400, (1s,4s)-4-(8-(2-chloro-4-cyano-6-fluorophenylamino)-2-(3,3-difluorocyclobutylamino)-9H-purin-9-yl)cyclohexanecarboxamide] | –
12 | 6.00 to 6.30 | – | C[C@]1(C(N)=O)CC[C@H](n2c(Nc3c(Cl)cc(C#N)cc3Cl)nc3cnc(NC4CCOCC4)nc32)CC1 [Example 475, (1r,4r)-4-(8-(2,6-dichloro-4-cyanophenylamino)-2-(tetrahydro-2H-pyran-4-ylamino)-9H-purin-9-yl)-1-methylcyclohexanecarboxamide] | –
13 | – | < 6.00 | NC(=O)[C@H]1CC[C@@H](n2c(Nc3c(F)cccc3F)nc3cnc(N[C@@H]4CCC[C@H]4O)nc32)CC1 [Example 251, (1S,4s)-4-(8-(2,6-difluorophenylamino)-2-((1R,2R)-2-hydroxycyclopentylamino)-9H-purin-9-yl)cyclohexanecarboxamide] | –
14 | < 6.00 | – | NC(=O)[C@H]1CC[C@@H](n2c(Nc3c(Cl)cc(F)cc3Cl)nc3cnc(N[C@H]4CCC[C@H](O)C4)nc32)CC1 [Example 462, (1R,4s)-4-(8-(2,6-dichloro-4-fluorophenylamino)-2-((1S,3S)-3-hydroxycyclohexylamino)-9H-purin-9-yl)cyclohexanecarboxamide] | –
15 | – | – | CC(C)OC(=O)N1CCC[C@@H](Nc2ncc3nc(Nc4c(Cl)cc(C#N)cc4Cl)n([C@H]4CC[C@@H](C(N)=O)CC4)c3n2)C1 [Example 769, (R)-isopropyl 3-(9-((1s,4S)-4-carbamoylcyclohexyl)-8-(2,6-dichloro-4-cyanophenylamino)-9H-purin-2-ylamino)piperidine-1-carboxylate] | pIC50 [3]: 6.00 to 6.30
16 | – | < 6.00 | NC(=O)[C@H]1CC[C@@H](n2c(Nc3cc(Cl)c(F)cc3F)nc3cnc(NC4CCOCC4)nc32)CC1 [Example 64, (1s,4s)-4-(8-(5-chloro-2,4-difluorophenylamino)-2-(tetrahydro-2H-pyran-4-ylamino)-9H-purin-9-yl)cyclohexanecarboxamide] | –
17 | – | < 6.00 | NC(=O)[C@H]1CC[C@@H](n2c(Nc3c(F)cc(Cl)cc3Cl)nc3cnc(NC4CCS(=O)(=O)CC4)nc32)CC1 [Example 157, (1s,4s)-4-(8-((2,4-dichloro-6-fluorophenyl)amino)-2-((1,1-dioxidotetrahydro-2H-thiopyran-4-yl)amino)-9H-purin-9-yl)cyclohexane-1-carboxamide] | –
18 | – | 6.30 to 6.60 | C[C@@H](CO)Nc1ncc2nc(Nc3c(Cl)cc(Cl)cc3Cl)n([C@H]3CC[C@@H](C(N)=O)CC3)c2n1 [Example 165, (1R,4s)-4-(2-((S)-1-hydroxypropan-2-ylamino)-8-(2,4,6-trichlorophenylamino)-9H-purin-9-yl)cyclohexanecarboxamide] | –
19 | – | < 6.00 | NC(=O)[C@H]1CC[C@@H](n2c(Nc3c(F)cccc3Cl)nc3cnc(N[C@H]4C[C@H](O)C4)nc32)CC1 [Example 281, (1s,4s)-4-(8-(2-chloro-6-fluorophenylamino)-2-((1R,3r)-3-hydroxycyclobutylamino)-9H-purin-9-yl)cyclohexanecarboxamide] | –
20 | – | – | N#Cc1cc(Cl)c(Nc2nc3cnc(N[C@@H]4CCC(F)(F)C4)nc3n2[C@H]2CC[C@@H](C(N)=O)CC2)c(Cl)c1 [Example 699, (1S,4s)-4-(8-(2,6-dichloro-4-cyanophenylamino)-2-((R)-3,3-difluorocyclopentylamino)-9H-purin-9-yl)cyclohexanecarboxamide] | pIC50 [3]: 6.30 to 6.60
21 | – | > 6.60 | N#Cc1cc(Cl)c(Nc2nc3cnc(NC4CCC4)nc3n2[C@H]2CC[C@@H](C(N)=O)CC2)c(Cl)c1 [Example 392, (1s,4s)-4-(2-(cyclobutylamino)-8-(2,6-dichloro-4-cyanophenylamino)-9H-purin-9-yl)cyclohexanecarboxamide] | –
22 | < 6.00 | – | COC(=O)N1CCCC(Nc2ncc3nc(Nc4c(F)cccc4F)n([C@H]4CC[C@@H](C(N)=O)CC4)c3n2)C1 (stereo partly drawn) [Example 404, (R)-methyl 3-(9-((1s,4S)-4-carbamoylcyclohexyl)-8-(2,6-difluorophenylamino)-9H-purin-2-ylamino)piperidine-1-carboxylate] | –
23 | – | – | C[C@]1(C(N)=O)CC[C@@H](n2c(Nc3c(F)cc(Cl)cc3F)nc3cnc(N[C@H]4CCC[C@@H](O)C4)nc32)CC1 [Example 632, (1R,4s)-4-(8-(4-chloro-2,6-difluorophenylamino)-2-((1S,3R)-3-hydroxycyclohexylamino)-9H-purin-9-yl)-1-methylcyclohexanecarboxamide] | pIC50 [3]: 6.00 to 6.30
24 | < 6.00 | – | NC(=O)[C@H]1CC[C@@H](n2c(Nc3c(F)cc(Cl)cc3Cl)nc3cnc(N[C@@H]4CCCC[C@H]4O)nc32)CC1 [Example 470, (1S,4s)-4-(8-(2,4-dichloro-6-fluorophenylamino)-2-((1R,2R)-2-hydroxycyclohexylamino)-9H-purin-9-yl)cyclohexanecarboxamide] | –
25 | < 6.00 | – | NC(=O)[C@H]1CC[C@@H](n2c(Nc3c(Cl)cc(OC(F)(F)F)cc3Cl)nc3cnc(NC4CCCC4)nc32)CC1 [Example 597, (1s,4s)-4-(2-(cyclopentylamino)-8-(2,6-dichloro-4-(trifluoromethoxy)phenylamino)-9H-purin-9-yl)cyclohexanecarboxamide] | –
26 | – | < 6.00 | NC(=O)[C@H]1CC[C@@H](n2c(Nc3cccc(Cl)c3F)nc3cnc(NC4CCC(F)(F)CC4)nc32)CC1 [Example 237, (1s,4s)-4-(8-(3-chloro-2-fluorophenylamino)-2-(4,4-difluorocyclohexylamino)-9H-purin-9-yl)cyclohexanecarboxamide] | –
27 | < 6.00 | – | CC(CN1CCOCC1)Nc1ncc2nc(Nc3c(Cl)cc(Cl)cc3Cl)n([C@H]3CC[C@@H](C(N)=O)CC3)c2n1 (stereo partly shown) [Example 531, (1s,4s)-4-(2-(1-morpholinopropan-2-ylamino)-8-(2,4,6-trichlorophenylamino)-9H-purin-9-yl)cyclohexanecarboxamide] | –
28 | – | – | C[C@]1(C(N)=O)CC[C@@H](n2c(Nc3c(F)cc(F)cc3Cl)nc3cnc(NC4CCC4)nc32)CC1 [Example 604, (1s,4s)-4-(8-(2-chloro-4,6-difluorophenylamino)-2-(cyclobutylamino)-9H-purin-9-yl)-1-methylcyclohexanecarboxamide] | pIC50 [3]: > 6.60
